In publication PMC8341910, “Structural and biophysical insights into the mode of covalent binding of rationally designed potent BMX inhibitors” (RSC Chemical Biology, 2020):
≈ marks a conversion by molar mass, not a printed value. Where “and” joins values, the source holds several entries; their conditions need not be identical. Identical values can stand only once. Like-named read-outs stand apart in the source and are kept apart here.

Assays:
[1] = test system: SK-N-MC; test: Multi cell line growth assay (CellTiter-Glo, 72 h); assay type: cell-based, human; conditions: Brain, ND = no growth inhibition observed
[2] = pH 6.8
[3] = test system: PC3; test: Multi cell line growth assay (CellTiter-Glo, 72 h); assay type: cell-based, human; conditions: Prostate, ND = no growth inhibition observed
[4] = test system: DAUDI; test: Multi cell line growth assay (CellTiter-Glo, 72 h); assay type: cell-based, human; conditions: Lymphoid, ND = no growth inhibition observed
[5] = test system: LNCaP; test: Multi cell line growth assay (CellTiter-Glo, 72 h); assay type: cell-based, human; conditions: Prostate, ND = no growth inhibition observed within the concentrations tested
[6] = Dynamic light scattering, colloidal aggregation; assay type: physicochemical; conditions: measured at 10 µM, 1 µM and 100 nM, 25 °C, read-out: DLS maximum soluble concentration at which no aggregates are observed
[7] = target: T1, recombinant human BMX protein (hBMX) (Homo sapiens, UniProt P51813); test: Differential scanning fluorimetry (DSF); assay type: binding; conditions: 100 μM compound; for Average Tm of BMX with compound: apo-BMX Tm 51.8-52.2 °C; for ΔTm at 100 µM: read-out: ΔTm
T1 construct: Crystallization, data collection, and structure determination of BMX catalytic domain in; made in house; host or cells: Sf-9 insect cells
Procedure: We further characterized the binding interaction between JS24–JS27 and BMX by using differential scanning fluorimetry (DSF) and surface plasmon resonance (SPR). Purified recombinant human BMX protein (hBMX) was first subjected to thermal scanning in the absence and presence of JS24–JS27, and the respective protein melting temperature (Tm) calculated.
Differential Scanning Fluorimetry:
DSF was performed in MicroAmp™ EnduraPlate™ Optical 96 -Well Clear Reaction Plates
with Barcode (Applied Biosystems, Life Technologies, California, USA) using a QuantStudio
7 Flex Real-Time PCR System (Applied Biosystems). Pre-incubation of the protein with the
compound for 2 hours at 4 °C was required prior to DSF experiments. The final reaction mixture
(20 μL of total volume) contained 4 μg of His6-BMX, 4-fold of Protein Thermal Shift™ Dye
(Applied Biosystems) diluted in protein buffer solution, and 100 μM of compound. The
temperatures were obtained by taking the midpoint of each transition.

[8] = test system: 22 RV1; test: Multi cell line growth assay (CellTiter-Glo, 72 h); assay type: cell-based, human; conditions: Prostate, ND = no growth inhibition observed
[9] = test system: CAOV3; test: Multi cell line growth assay (CellTiter-Glo, 72 h); assay type: cell-based, human; conditions: Ovary, ND = no growth inhibition observed
[10] = test system: Jurkat; test: Multi cell line growth assay (CellTiter-Glo, 72 h); assay type: cell-based, human; conditions: Blood, ND = no growth inhibition observed
[11] = test system: RS4(11); test: Multi cell line growth assay (CellTiter-Glo, 72 h); assay type: cell-based, human; conditions: Lung (so in the source), ND = no growth inhibition observed
[12] = test system: Kasumi; test: Multi cell line growth assay (CellTiter-Glo, 72 h); assay type: cell-based, human; conditions: Blood, ND = no growth inhibition observed
[13] = target: T2, BMX (Homo sapiens, UniProt P51813); test: BMX biochemical activity assay (HTRF, phosphorylation of a biotinylated peptide); conditions: for LE (BMX): ligand efficiency; for LipE (BMX): lipophilic efficiency
T2 sequence (P51813 1-675): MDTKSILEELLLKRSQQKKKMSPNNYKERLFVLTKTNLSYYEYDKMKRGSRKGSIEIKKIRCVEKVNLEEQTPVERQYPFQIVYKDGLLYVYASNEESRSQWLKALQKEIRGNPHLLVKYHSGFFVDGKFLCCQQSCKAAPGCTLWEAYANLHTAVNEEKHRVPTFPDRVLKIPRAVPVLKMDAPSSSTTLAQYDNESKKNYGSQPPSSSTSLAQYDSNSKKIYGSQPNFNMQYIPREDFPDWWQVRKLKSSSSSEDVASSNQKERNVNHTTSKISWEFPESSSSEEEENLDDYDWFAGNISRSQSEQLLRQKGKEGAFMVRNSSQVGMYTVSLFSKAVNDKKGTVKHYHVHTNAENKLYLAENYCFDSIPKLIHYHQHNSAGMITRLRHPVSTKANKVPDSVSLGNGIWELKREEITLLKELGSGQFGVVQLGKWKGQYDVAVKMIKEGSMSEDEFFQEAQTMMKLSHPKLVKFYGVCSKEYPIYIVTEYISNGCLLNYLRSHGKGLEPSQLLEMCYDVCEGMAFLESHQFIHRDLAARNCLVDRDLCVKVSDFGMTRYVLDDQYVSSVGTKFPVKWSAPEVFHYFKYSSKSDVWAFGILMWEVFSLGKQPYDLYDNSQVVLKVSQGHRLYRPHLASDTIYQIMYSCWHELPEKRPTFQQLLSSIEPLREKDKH

[14] = test system: LNCaP cells; test: LNCaP cell growth assay (CellTiter-Glo, 96 h); assay type: cell-based; conditions: Homo sapiens, 96-well plates, mean of three experiments in triplicate, read-out: GI50 LNCaP
Procedure: (§1) GI50 values are reported in μM and are the mean of three individual experiments performed in triplicate. N.d., non-determined, no growth inhibition observed within the concentrations tested.
(§2) Cellular activity Assay: LNCaP and PC-3 Cell Growth Assay
(§3) Cells were seeded in white, opaque-bottom 96-well plates at 5000 cells/well (LNCaP) or 2000 cells/well (PC-3) in a total volume of 100 µL of culture media.
(§4) fold) in 100 µL media were added to the cells 24 hours later. After 96 hours incubation cellular viability was assessed by CellTiter-Glo® (Promega) according to the manufacturer’s instructions. The values were normalized to vehicle and IC50 was calculated using GraphPad

[15] = target: T3, His6-hsBMX (Homo sapiens, UniProt P51813); test: Surface plasmon resonance (SPR); assay type: binding; conditions: 1:1 Langmuir fit, 25 °C
T3 construct: Crystallization, data collection, and structure determination of BMX catalytic domain in; made in house; host or cells: Sf-9 insect cells
Excerpt: response upon compound injection (t=0s), or upon washing (t=220s), on immobilized His6-
hsBMX surfaces. Compound concentrations injected on already saturated surfaces were not
included in the 1:1 Langmuir fitting model. X-axis: time (s); y-axis: response (arbitrary units).
Inset plots [x-axis: compound concentration (M); y-axis: response (arbitrary units)] show the
steady-state affinity (KDss) fit for the interactions wherein equilibrium was reached.
Surface Plasmon Resonance:
The kinetic and affinity parameters of protein-compound interaction were evaluated by SPR.
Experiments were carried out in a Biacore 4000 instrument (Biacore AB, GE Healthcare Life
Sciences, Uppsala, Sweden) at 25 °C. His6-BMX protein was diluted to 10 µg/mL in sodium
acetate pH 5.5, in the presence of 5 µM staurosporine and immobilized onto CM5 (Series S)
sensor chips, using the standard amine coupling procedure. Prior to immobilization, the
carboxymethylated surface of the chip was activated with 400 mM 1-ethyl-3-(3-
dimethylaminopropyl)-carbodiimide and 100 mM N-hydroxysuccinimide for 10 min. HBS-N
(10 mM HEPES pH7.4, 150mM NaCl) was used as the background buffer. Protein was coupled
to the surface after 2 to 10 min injection times, at a flow rate of 10 µL/min, in order to reach
1500 to 3500 response units (RU). The remaining activated carboxymethylated groups were
blocked with a 7 min injection of 1 M ethanolamine pH 8.5. Compounds were pre-diluted in
DMSO to 50x the desired highest tested concentration and diluted afterwards in running buffer
(20 mM HEPES pH 7.4, 150 mM NaCl, 1 mM DTT, 0.1 mM EGTA, 0.05 % (v/v) TWEEN-
20, 5 mM MgCl2) in order to reach 2% of DMSO concentration. A DMSO solvent correction
(1% - 3%) was performed to account for variations in bulk signal and to achieve high-quality
data. Each compound was injected over immobilized His6-BMX for 220 s (30 µL min-1;
association phase) followed by 600 to 2000 s of buffer flow (dissociation phase) at a maximum
five times in 2-fold dilution series. All sensorgrams were processed by first subtracting the
binding response recorded from the control surface (reference spot), followed by subtracting
the buffer blank injection from the reaction spot. All datasets were fit to a simple 1:1 Langmuir
interaction model with the provided Biacore 4000 Evaluation software, to determine kinetic rate constants (kon, koff) or steady-state affinity (KDss).

[16] = target: BTK (Homo sapiens, UniProt Q06187); test: BTK biochemical activity assay (radiometric, KinaseProfiler); parameters: purchased Eurofins DiscoverX KinaseProfiler (contract assay)
[17] = in vitro; conditions: PAMPA
[18] = target: T2, BMX; test: Kinetic characterization with ADP-Glo kinase assay; assay type: biochemical; parameters: purchased Promega Corporation (USA) V4512; conditions: duplicate, mean ± S.D.
Excerpt: The inactivation of BMX occurs in a two-step process that is governed by two parameters: the affinity of the initial non-covalent binding, KI, and the rate of the subsequent covalent bond-forming reaction with the thiol of the cysteine residue, kinact. […]. […] Thus, taking into account that all the analogues have the same Michael acceptor moiety, the enhanced activity must be a result of the structural modifications introduced in the scaffold. […]
Kinetic characterization using an ADP-GLOTM kinase assay:
The BMX enzyme system (Catalog. V4512) and the ADP-GloTM kinase assay were purchased from Promega Corporation (USA). In each kinase reaction, the concentration of BMX was set to 4.5 ng/µL. The peptide substrate Poly (4:1 Glu, Tyr) and ATP concentrations were set to 0.25 mg/mL and 50 µM, respectively. BMX was pre-incubated with different inhibitor concentrations (10-fold serial dilutions, starting at 1 mM), over different time periods (2 - 60 min), before initiating the kinase reactions. Reactions were started by adding 2.5X Poly E4Y1/ATP mixture. The reactions were carried out in a 384-well plate, stopping all at the same time with the addition of 5 µL of ADP-GloTM reagent, to consume the remaining ATP within 40 min. Then, 10 µL of kinase detection reagent was added into the wells and incubated for 30 min to produce a luminescence signal. The signal was measured using an Infinite M200 […]
observed rate constants for inhibition (kobs), at different inhibitor concentrations, were determined from the slope of a semi-logarithmic plot of inhibition versus time, and re-plotted against inhibitor concentration (nM). The experimental values were fitted into a hyperbolic function using GraphPad Prism 8 ([…]), to obtain the KI, kinact, and kinact/KI, as described previously.12 […]
(Thermo Fisher Scientific) using gold-coated glass needles. […]

[19] = test system: LNCaP cells; test: Anti-proliferative co-treatment assays in LNCaP; assay type: cell-based; conditions: JS24 3 μM, JS25 5 μM, JS26 6 μM, 5 days
[20] = test system: PC3 cells; test: PC-3 cell growth assay (CellTiter-Glo, 96 h); assay type: cell-based; conditions: Homo sapiens, PC-3; 96 h, 96-well plates; N.d. = no growth inhibition observed within the concentrations tested; read-out: GI50 PC3
Procedure: as §1, §2, §3, §4

[21] = test system: H1299; test: Multi cell line growth assay (CellTiter-Glo, 72 h); assay type: cell-based, human; conditions: Bone marrow (so in the source), ND = no growth inhibition observed
[22] = Experiment 4 of Fig. S3 = Fig. 1b, duplicate, mean ± S.D., read-out: BMX inhibition IC50
[23] = relative to the control of the same set of experiments
[24] = deionized and filtered water (0.1% DMSO), kinetic from dmso stock
[25] = pH 6.8, PAMPA/Pe effective permeability

Sequence of BTK (Q06187 whole entry, species assumed): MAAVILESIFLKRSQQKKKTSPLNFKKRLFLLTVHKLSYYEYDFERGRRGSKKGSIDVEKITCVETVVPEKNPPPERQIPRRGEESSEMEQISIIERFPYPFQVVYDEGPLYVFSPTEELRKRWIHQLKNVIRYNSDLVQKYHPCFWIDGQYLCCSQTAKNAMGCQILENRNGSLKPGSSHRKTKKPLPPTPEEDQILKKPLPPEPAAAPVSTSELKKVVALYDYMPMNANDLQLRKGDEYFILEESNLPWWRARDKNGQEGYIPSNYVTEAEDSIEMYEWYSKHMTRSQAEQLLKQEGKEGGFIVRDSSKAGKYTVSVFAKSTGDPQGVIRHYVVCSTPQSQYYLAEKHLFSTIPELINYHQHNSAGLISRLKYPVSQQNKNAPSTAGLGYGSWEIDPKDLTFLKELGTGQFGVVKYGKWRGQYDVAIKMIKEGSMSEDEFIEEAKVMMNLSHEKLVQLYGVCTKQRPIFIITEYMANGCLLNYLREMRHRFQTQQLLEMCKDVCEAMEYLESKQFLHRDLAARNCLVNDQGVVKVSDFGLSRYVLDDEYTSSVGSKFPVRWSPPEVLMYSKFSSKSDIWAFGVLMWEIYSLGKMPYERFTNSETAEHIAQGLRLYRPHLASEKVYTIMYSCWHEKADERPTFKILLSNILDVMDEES

Structure (SMILES)	GI50 [1]	PAMPA/%R membrane retention [2]	PAMPA/Pe effective permeability [2]	GI50 [4]	GI50 [5]	solubility ([6]; water)	Average Tm of BMX with compound [7]	GI50 [8]	GI50 [9]	GI50 [10]	GI50 [11]	GI50 [12]	IC50 [13, 22]	LE (BMX) [13]	LipE (BMX) [13]	GI50 [14]	koff [15]	kon [15]	solubility [6, 24]	ΔTm at 100 µM ([7]; versus apo-BMX)	also measured
CC(C)=CC(=O)Nc1cc(-n2c(=O)ccc3cnc4ccc(-c5ccc(NS(C)(=O)=O)cc5)cc4c32)ccc1C [JS11]	8.24 µM	54±9%	31±4 x10-6 cm/sec	4.57 ± 0.12 µM	10.4 µM	0.1 µM (≈ 0.0553 µg/mL)	52.26±0.11 °C	7.3 µM	19.3 µM	6.36 ± 0.17 µM	6.66 µM	10.14 ± 0.07 µM	–	–	–	–	–	–	–	–	GI50 [3]: 20.1 µM; ΔTm ([7]; versus apo-BMX): 0.34±0.11 °C
C=CC(=O)Nc1cccc(-n2c(=O)ccc3cnc4cc(N5CCN(S(C)(=O)=O)CC5)ccc4c32)c1 [JS27]	–	42±14%	–	–	–	–	62.94±0.06 °C	–	–	–	–	–	0.0137 µM	0.30	5.54	9.3 µM	< 0.0001 s⁻¹	99000 M⁻¹ s⁻¹	≥ 10 µM	10.81 ± 0.06 °C	BMX potency gain (fold) against BMX-IN-1 [13, 23]: ≈ 4 fold; BTK potency gain (fold) relative to BMX-IN-1 [16]: 15 fold; IC50 ([16]; duplicate, mean ± S.D., read-out: BTK inhibition IC50): 0.0243 ± 0.0003 µM; LE (BTK) ([16]; ligand efficiency): 0.29; LipE (BTK) ([16]; lipophilic efficiency): 5.29; Papp ([17]; pH 6.8, PAMPA permeability): 12 ×10⁻⁶ cm/s; Papp [17, 25]: 12 ± 2 ×10⁻⁶ cm/s; k inact [18]: 0.166 min⁻¹ and 0.166 ± 0.003 min⁻¹
C=CC(=O)Nc1cccc(-n2c(=O)ccc3cnc4cc(-c5ccc(NS(C)(=O)=O)cc5)ccc4c32)c1 [JS26]	–	8±14%	–	–	–	–	61.47±0.21 °C	–	–	–	–	–	0.0091 µM	0.30	4.45	7.7 µM	< 0.0001 s⁻¹	72000 M⁻¹ s⁻¹	≥ 10 µM	9.34 ± 0.21 °C	decrease in cell viability ([19]; co-treatment with AKT1/2 (1 μM), relative to control AKT1/2): 63%; decrease in cell viability ([19]; co-treatment with LY294002 (3 μM)): 35%; GI50 [20]: 10.1 ± 1.3 µM; Papp ([17]; pH 6.8, PAMPA permeability): 19 ×10⁻⁶ cm/s; Papp [17, 25]: 19 ± 13 ×10⁻⁶ cm/s; k inact [18]: 0.443 min⁻¹ and 0.443 ± 0.003 min⁻¹
CC=CC(=O)Nc1cc(-n2c(=O)ccc3cnc4ccc(-c5ccc(NS(C)(=O)=O)cc5)cc4c32)ccc1C [JS10]	11.2 µM	33±4%	28±4 x10-6 cm/sec	2.57 ± 0.09 µM	9.7 µM	0.1 µM (≈ 0.0539 µg/mL)	–	4.86 ± 0.11 µM	17.3 µM	9.71 ± 1.48 µM	5.06 µM	4.37 ± 0.04 µM	–	–	–	–	–	–	–	–	IC50 ([13]; Experiment 1 of Fig. S3, control JS9A (in-house BMX-IN-1), read-out: BMX IC50): 21 ± 7.25 µM; BMX potency loss (fold) against control BMX-IN-1 [13, 23]: 58 fold; GI50 [21]: 19.4 µM
